Measured values published in patent US20230263822A1, “MODULATION OF FACTOR 11 EXPRESSION” (Ionis Pharmaceuticals, Inc., priority 2008, published 2023).
Strand notation (5' to 3'): a small letter for the sugar, then the base; units joined by * are phosphorothioate-linked, units joined directly phosphodiester-linked; [ ] holds rarer units or linkages, { } end groups; capitals alone tell only the bases. e = 2'-O-(2-methoxyethyl) (MOE); [5mC] = 5-methylcytosine; d = 2'-deoxy (DNA)

These substances were tested on human Factor 11 mRNA (assay: Antisense inhibition of human Factor 11 in HepG2 cells, electroporation, 8,000 nM (Example 30)). Conditions: electroporation, 8,000 nM antisense oligonucleotide.
Assay type: cell-based
Method: These microwalk gapmers were tested in vitro. Cultured HepG2 cells at a density of 20,000 cells per well were transfected using electroporation with 8,000 nM antisense oligonucleotide. After a treatment period of approximately 24 hours, RNA was isolated from the cells and Factor 11 mRNA levels were measured by quantitative real-time PCR. Factor 11 mRNA levels were adjusted according to total RNA content, as measured by RIBOGREEN. Results are presented as percent inhibition of Factor 11, relative to untreated control cells.
The chimeric antisense oligonucleotides in Table 44 were designed as 5-10-5 MOE, 5-8-5 and 6-8-6 MOE gapmers. The first two listed gapmers in Table 44 are the original gapmers (ISIS 416850 and ISIS 416858) from which ISIS 445493-445543 were designed via microwalk, and are designated by an asterisk. The 5-10-5 gapmers are 20 nucleotides in length, wherein the central gap segment is comprised of ten 2′-deoxynucleotides and is flanked on both sides (in the 5′ and 3′ directions) by wings comprising five nucleotides each. The 5-8-5 gapmers are 18 nucleotides in length, wherein the central gap segment is comprised of eight 2′-deoxynucleotides and is flanked on both sides (in the 5′ and 3′ directions) by wings comprising five nucleotides each. The 6-8-6 gapmers are 20 nucleotides in length, wherein the central gap segment is comprised of eight 2′-deoxynucleotides and is flanked on both sides (in the 5′ and 3′ directions) by wings comprising six nucleotides each. For each of the motifs (5-10-5, 5-8-5 and 6-8-6), each nucleotide in the 5′ wing segment and each nucleotide in the 3′ wing segment has a 2′-MOE modification. The internucleoside linkages throughout each gapmer are phosphorothioate (P=S) linkages. All cytidine residues throughout each gapmer are 5-methylcytidines. “Human Target start site” indicates the 5′-most nucleotide to which the gapmer is targeted in the human sequence. “Human Target stop site” indicates the 3′-most nucleotide to which the gapmer is targeted in the human sequence. Each gapmer listed in Table 44 is targeted to SEQ ID NO: 1 (GENBANK Accession No. NM_000128.3). Each gapmer is Table 44 is also fully cross-reactive with the rhesus monkey Factor 11 gene sequence, designated herein as SEQ ID NO: 274 (exons 1-15 GENBANK Accession No. NW_001118167.1). ‘Rhesus monkey start site’ indicates the 5′-most nucleotide to which the gapmer is targeted in the rhesus monkey sequence. ‘Rhesus monkey stop site’ indicates the 3′-most nucleotide to which the gapmer is targeted to the rhesus monkey sequence.
In the case of “445506 (antisense eA*e[5mC]*eG*eG*e[5mC]*eA*dT*dT*dG*dG*dT*dG*d[5mC]*dA*e[5mC]*eA*eG*eT*eT*eT) [compound 445506]”, the “Percent inhibition of human Factor 11 mRNA levels” value (from here on “Percent inhibition”) is reported as 86%. “445507 (antisense eG*eA*e[5mC]*eG*eG*e[5mC]*dA*dT*dT*dG*dG*dT*dG*d[5mC]*eA*e[5mC]*eA*eG*eT*eT) [compound 445507]” was tested, and the “Percent inhibition” value was 85%. In the case of “445508 (antisense eG*eG*eA*e[5mC]*eG*eG*d[5mC]*dA*dT*dT*dG*dG*dT*dG*e[5mC]*eA*e[5mC]*eA*eG*eT) [compound 445508]”, the “Percent inhibition” value is reported as 81%. In the case of “445510 (antisense eG*e[5mC]*eG*eG*eA*e[5mC]*dG*dG*d[5mC]*dA*dT*dT*dG*dG*eT*eG*e[5mC]*eA*e[5mC]*eA) [compound 445510]”, the “Percent inhibition” value is reported as 88%. With “445511 (antisense eA*eG*e[5mC]*eG*eG*eA*d[5mC]*dG*dG*d[5mC]*dA*dT*dT*dG*eG*eT*eG*e[5mC]*eA*e[5mC]) [compound 445511]” the “Percent inhibition” value was 77%. For “445512 (antisense e[5mC]*eA*eG*e[5mC]*eG*eG*dA*d[5mC]*dG*dG*d[5mC]*dA*dT*dT*eG*eG*eT*eG*e[5mC]*eA) [compound 445512]”, the “Percent inhibition” value was 79%. In the case of “445514 (antisense eG*eG*e[5mC]*eA*eG*e[5mC]*dG*dG*dA*d[5mC]*dG*dG*d[5mC]*dA*eT*eT*eG*eG*eT*eG) [compound 445514]”, the “Percent inhibition” value is reported as 81%. “445515 (antisense eT*eG*eG*e[5mC]*eA*eG*d[5mC]*dG*dG*dA*d[5mC]*dG*dG*d[5mC]*eA*eT*eT*eG*eG*eT) [compound 445515]” was tested, and the “Percent inhibition” value was 75%. In the case of “445516 (antisense e[5mC]*eT*eG*eG*e[5mC]*eA*dG*d[5mC]*dG*dG*dA*d[5mC]*dG*dG*e[5mC]*eA*eT*eT*eG*eG) [compound 445516]”, the “Percent inhibition” value is reported as 79%. In the case of “445517 (antisense eA*e[5mC]*eT*eG*eG*e[5mC]*dA*dG*d[5mC]*dG*dG*dA*d[5mC]*dG*eG*e[5mC]*eA*eT*eT*eG) [compound 445517]”, the “Percent inhibition” value is reported as 74%. For “445518 (antisense eA*eG*eT*eT*eT*d[5mC]*dT*dG*dG*d[5mC]*dA*dG*dG*e[5mC]*e[5mC]*eT*e[5mC]*eG) [compound 445518]”, the “Percent inhibition” value was 75%. For “445519 (antisense e[5mC]*eA*eG*eT*eT*dT*d[5mC]*dT*dG*dG*d[5mC]*dA*dG*eG*e[5mC]*e[5mC]*eT*e[5mC]) [compound 445519]”, the “Percent inhibition” value was 81%. “445520 (antisense eA*e[5mC]*eA*eG*eT*dT*dT*d[5mC]*dT*dG*dG*d[5mC]*dA*eG*eG*e[5mC]*e[5mC]*eT) [compound 445520]” was tested, and the “Percent inhibition” value was 82%. For “445521 (antisense e[5mC]*eA*e[5mC]*eA*eG*dT*dT*dT*d[5mC]*dT*dG*dG*d[5mC]*eA*eG*eG*e[5mC]*e[5mC]) [compound 445521]”, the “Percent inhibition” value was 87%. “445523 (antisense eT*eG*e[5mC]*eA*e[5mC]*dA*dG*dT*dT*dT*d[5mC]*dT*dG*eG*e[5mC]*eA*eG*eG) [compound 445523]” was tested, and the “Percent inhibition” value was 73%. With “445524 (antisense eG*eT*eG*e[5mC]*eA*d[5mC]*dA*dG*dT*dT*dT*d[5mC]*dT*eG*eG*e[5mC]*eA*eG) [compound 445524]” the “Percent inhibition” value was 75%. For “445525 (antisense eG*eG*eT*eG*e[5mC]*dA*d[5mC]*dA*dG*dT*dT*dT*d[5mC]*eT*eG*eG*e[5mC]*eA) [compound 445525]”, the “Percent inhibition” value was 85%. In the case of “445526 (antisense eT*eG*eG*eT*eG*d[5mC]*dA*d[5mC]*dA*dG*dT*dT*dT*e[5mC]*eT*eG*eG*e[5mC]) [compound 445526]”, the “Percent inhibition” value is reported as 81%. In the case of “445527 (antisense eT*eT*eG*eG*eT*dG*d[5mC]*dA*d[5mC]*dA*dG*dT*dT*eT*e[5mC]*eT*eG*eG) [compound 445527]”, the “Percent inhibition” value is reported as 70%.
